Results reported in PMC4929566, “The metabolome of [2-^14C](−)-epicatechin in humans: implications for the assessment of efficacy, safety, and mechanisms of action of polyphenolic bioactives” (Scientific Reports, 2016).

What was measured:
Format in all cases: in vivo, humans
Conditions in all cases: human
[1] = Total [2-14C](−)-epicatechin-derived radioactivity in whole blood and plasma after oral intake
Procedure: (§1) The study was a single-center, open-label, and non-randomized study with two distinct elements: a run-in phase to establish a more defined dietary background of dietary flavanols and procyanidins and the subsequent ^14C-EC ADME study (Fig. 1B). Participants (n = 12) were enrolled in the run-in phase (day –17 to day –4) and asked to supplement their daily diet for 14 days with a commercially available flavanol-containing cocoa-based drink (250 mg cocoa flavanols; 40 mg of EC). This was followed by a 4-day period (day –4 to 0) of a low-flavanol diet. One day (study day -1) prior to the initialization of the ^14C-EC ADME study, all eligible participants were accommodated under controlled conditions at a metabolic research facility (Covance Clinical Pharmacology Inc., Wisconsin) until completion of the study. Based on the compliance of the first part of the study, 8 participants were selected to participate in the ^14C-EC ADME study. During the ^14C-EC ADME study (Fig. 1B.), volunteers received a low-flavanol, standardized high-fiber diet, and were encouraged to maintain an adequate level of hydration (water ad libitum). Volunteers were asked to fast for 8 h before the initiation of the study and for at least 4 h after the intake of the ^14C-EC test drink (water ad libitum). Venous blood samples were taken using Vacutainer collection tubes, containing potassium EDTA at 0 h (just prior to ^14C-EC ingestion), and at 0.25, 0.5, 1, 1.5, 2, 2.5, 3, 4, 6, 8, 10, 12, 16, 24, 36, and 48 h after test drink consumption. Plasma was obtained by whole blood centrifugation at 2000 × g for 15 min at 5 °C, separated into aliquots and stored at −80 °C until analysis. All urine and feces from the time just prior to the consumption of the test drink were collected at different time intervals for radioactivity and metabolite profiling. Clinical parameters and laboratory evaluations of participants were assessed at screening, on study day –1, and after completing the study, as detailed in Supplementary Methods.
(§2) The 50-mL drink consisted of an aqueous solution of ^14C-EC (specific activity 14.5 μCi μmol^−1) and delivered 60 mg (207 μmol) of EC and 300 μCi (660 × 10^6 dpm) of radioactivity. The drink was prepared one day before consumption to verify correctness of composition and stability. Volunteers received the ^14C-EC test drink (50 mL), followed by 3 × 50 mL of water that was used to rinse the test drink container, and 40 mL of water. The radioactivity remaining in the test drink containers was measured, and the residual radioactivity recovered from each container was subtracted from the amount administered to the corresponding volunteer.
(§3) Radioactivity in aliquots of plasma and urine was measured by liquid scintillation counting. Blood and feces were dried and oxidized by combustion using a 307 Sample Oxidizer (Packard Instrument Company, Meriden, NH) before being analyzed by liquid scintillation counting.

[2] = Elimination and mass balance of radioactivity in urine and feces
Procedure: as §1, §2, §3

[3] = Adverse events and clinical/laboratory evaluation in the 14C-EC ADME study
Procedure: as §1, with “Methods. […]” for “Methods.”

[4] = all volunteers, post-consumption

Time by which radioactivity in plasma fell below the limit of quantitation [1, 4]: ≤ 72 h
Time by which radioactivity in whole blood fell below the limit of quantitation [1, 4]: ≤ 36 h
Time after consumption at which radioactivity was detected in the circulation ([1]; oral 60 mg 14C-EC): 15 min
Total radioactivity in the circulatory system at Cmax, of the amount of 14C-EC ingested ([1]; calculated from whole blood concentration and blood volume): < 2%
Accumulated radioactivity voided in feces, of ingested 14C-EC ([2]; oral 60 mg 14C-EC): 12 ± 3%
Radioactivity in urine and feces combined, of intake ([2]; oral 60 mg 14C-EC): 95 ± 1%
Radioactivity not recovered in the collected samples ([2]; oral 60 mg 14C-EC): 5 ± 1%
Accumulated radioactivity eliminated in urine, of amount ingested ([2]; oral 60 mg 14C-EC, liquid scintillation counting, 0–48 h): 82 ± 5%
Ingested EC absorbed ([2]; oral 60 mg, n=8): 82 ± 5%
Structure (SMILES): Oc1cc(O)c2c(c1)O[C@H](c1ccc(O)c(O)c1)[C@H](O)C2 [^14C-EC, [2-^14C](−)-epicatechin]
Association of whole blood radioactivity with plasma vs cellular components [1]: associated, almost exclusively, with plasma
Severity of reported adverse events [3]: all reported adverse events were mild in severity
Number of adverse events reported ([3]; reported by 3 different participants, none related to study treatment): 6
Adverse events related to the study treatment ([3]; single oral 60 mg, 300 μCi): No adverse events related to the study treatment were recorded
Clinical changes in laboratory evaluations, physical examinations and 12-lead electrocardiograms ([3]; single oral 60 mg, 300 μCi): no significant clinical changes
